From patent publication US20250270182A1, “Composition Comprising an Antimicrobial Agent and an Alkyl Ketal Ester Compound” (Symrise AG, priority 2022, published 2025)

What was measured:
Test in all cases: Minimum Inhibitory Concentration (MIC) test, growth inhibition in 96 well plates
Format in all cases: cell-based
Staphylococcus aureus = conditions: lowest concentration with complete growth inhibition, optical density, substances solved in DMSO; for MIC: Staphylococcus aureus, read-out: MIC in ppm Staphylococcus aureus
Procedure: (§1) The Minimum Inhibitory Concentration (MIC) test is a test on growth inhibition. The estimation of MICs is executed in 96 well plates. Through the comparison of bacterial growth with positive and negative controls via optical density (OD), different concentrations of given test substances are evaluated. Bacteria were cultivated under adjusted conditions based on information of the German Collection of Microorganisms and Cell Cultures (DSMZ) and stored in 10% or 50% glycerol prior to use. Afterwards, the following method was applied: Growth medium (according to microorganism) was added to each well of the microplate. Then, the test-substances, solved in DMSO, were added in different concentrations, positive controls (water controls only with medium), solvent controls (DMSO controls only with medium), and negative controls (benchmarks according to organism). Finally, the microorganisms were added in a concentration of 1 to 6×10^6 CFU/ml (CFU=colony forming units). The incubation of the microplates was carried out at appropriate conditions. According to the resulting growth, substance concentrations are labelled either as inhibiting or not and MIC is defined as the lowest concentration where a complete growth inhibition is visible. Experiments at concentration limits (highest concentration labelled as growth and lowest concentration labelled as inhibiting) are performed at least twice. The synergistic activity of NxtSolv 320 (Ethyl propylene glycol acetal levulinate) and Nxt Solv 420 (Ethyl glycerine acetal levulinate) in combination with different antimicrobial compounds was determined by measuring the Minimum Inhibitory Concentrations (MIC) according to the method as described above. […] In special occasions, intermediate dilution steps were performed to further improve the MIC resolution. […] To verify that the tested combinations act synergistically against microorganisms, corresponding experiments were conducted with Staphylococcus aureus, Candida albicans, Aspergillus brasiliensis, Pseudomonas aeruginosa and Escherichia coli. […] In order to calculate the synergy index with MIC values, the Kull equation was used as follows: […]

Candida albicans = conditions: lowest concentration with complete growth inhibition, optical density, substances solved in DMSO; for MIC: Candida albicans, read-out: MIC in ppm Candida albicans
Procedure: as §1

Aspergillus brasiliensis = conditions: lowest concentration with complete growth inhibition, optical density, substances solved in DMSO; for MIC: Aspergillus brasiliensis, read-out: MIC in ppm Aspergillus brasiliensis
Procedure: as §1

Escherichia coli = conditions: lowest concentration with complete growth inhibition, optical density, substances solved in DMSO; for MIC: Escherichia coli, read-out: MIC in ppm Escherichia coli
Procedure: as §1

Pseudomonas aeruginosa = conditions: lowest concentration with complete growth inhibition, optical density, substances solved in DMSO; for MIC: Pseudomonas aeruginosa, read-out: MIC in ppm Pseudomonas aeruginosa
Procedure: as §1

Row | Compound | MIC (Staphylococcus aureus) [mg/mL] | MIC (Candida albicans) [mg/mL] | MIC (Aspergillus brasiliensis) [mg/mL] | MIC (Escherichia coli) [mg/mL] | MIC (Pseudomonas aeruginosa) [mg/mL] | MIC in ppm Staphylococcus aureus (Staphylococcus aureus) | MIC in ppm Candida albicans (Candida albicans) | MIC in ppm Aspergillus brasiliensis (Aspergillus brasiliensis) | MIC in ppm Escherichia coli (Escherichia coli) | MIC in ppm Pseudomonas aeruginosa (Pseudomonas aeruginosa)
1 | CCCC(O)CO (centres unmarked) [1,2-Pentanediol] | 35 | 12.5 | 17.5 | 15 | 30 | – | – | – | – | –
2 | CC(=O)c1ccc(O)cc1 [4-Hydroxyacetophenone] | – | – | – | – | – | 5,000 ppm | 6,000 ppm | 2,500 ppm | 2,500 ppm | 4,000 ppm
3 | CCCCC(CC)COCC(O)CO (centres unmarked) [Ethylhexylglycerin] | – | – | – | – | – | 1,000 ppm | 1,000 ppm | 1,000 ppm | 2,500 ppm | 50,000 ppm
4 | CCOC(=O)CCC1(C)OCC(CO)O1 (centres unmarked) [Ethyl glycerine acetal levulinate, ethyl glycerine acetal levulinate] | 17.5 | 25 | 15 | 25 | 35 | – | – | – | – | –
